Legend:
[1] = Stability of formulated radioligand in PBS (analytical HPLC); format: physicochemical; conditions: pH 7.4, for 120 min
Protocol: The radiochemical purity and stability of all three radioligands ([^11C]3, [^18F]1 and [^18F]2) were determined using analytical HPLC coupled with an XBridge analytical column (C18 5 µm, 4.6 × 150 mm particle size), a Merck-Hitachi L-7100 pump, an L-7400 UV detector, and a GM tube for radioactivity detection (VWR International). A mixture of acetonitrile (25%) and HCO2NH4 (0.1 M aq. solution) (75%) with a flow rate of 2 mL/min was used as HPLC isocratic mobile phase. The HPLC liquid flow was monitored using a UV absorbance detector (λ = 254 nm) in conjunction with a radioactive detector (BETA-flow, Beckman, Fullerton, CA, USA). All three radioligands were eluted with a retention time (tR) of 4.0–4.5 min, and the total run time of the HPLC program was 9 min. The identity of the radiolabeled compound was confirmed by co-injecting the corresponding authentic reference standard.

LRRK2 = molecular target: T1, LRRK2 (Homo sapiens, UniProt Q5S007); test: In vitro autoradiography, human whole-hemisphere brain slices; format: binding; conditions: human brain slices, baseline
T1 construct: Human brains without pathological findings were acquired from the National Institute of Forensic Medicine; from tissue; host or cells: human post-mortem control brain, whole-hemisphere sections (100 µm)
Protocol: Human brains without pathological findings were acquired from the National Institute of Forensic Medicine at Karolinska Institutet in Stockholm, Sweden. These brains were obtained during forensic autopsies (designated as control brain) and were processed in a manner like previously described methods. […] The brain was removed, and its tissues were kept in −85 °C until the sectioning process. The whole brain hemispheric slices were subsequently maintained at −25 °C until the commencement of autoradiography procedures. […] The sectioning of the brain and the autoradiography experiments were performed at the Psychiatry section, Department of Neuroscience, Karolinska Institutet, Sweden.
Whole brain hemispheres were sectioned into horizontal slices with a thickness of 100 µm using a Leica cryomacrocut system. The autoradiographic procedures followed the same protocols established in previous studies conducted in our laboratory. The whole-hemisphere sections of 100 micron thickness were incubated for 90 min at room temperature with their corresponding radiotracer (4 MBq/200 mL) in TRIS buffer (pH 7.4) containing sodium chloride (120 mM), potassium chloride (5 mM), calcium chloride (2 mM), and albumin (0.1% w/v). After incubation, sections were washed three times in the same buffer at room temperature for five minutes each, briefly dipped in ice-cold distilled water, dried, and then placed in the phosphor imaging plates. Binding density standards were prepared by serial dilution of the radioligand stock solution in the assay buffer. Readings were taken with the Fujifilm BAS-5000 (Fujifilm, Tokyo, Japan), while quantitative analysis was conducted with the Multi Gauge 3.2 image analysis software (Fujifilm, Tokyo, Japan). For blocking experiments, adjacent brain sections were co-incubated with LuAF66583 (0.1 µM or 10 µM).

[2] = Radiometabolite analysis in monkey plasma (gradient HPLC); format: in vivo, cynomolgus monkey; conditions: baseline PET
Protocol: The technique published earlier was utilized for the analysis of radiometabolites in NHP blood plasma. During the entire PET measurement, the percentage of the injected radioligand and its corresponding radioactive metabolites and radioactivity was measured with a reverse-phase HPLC system with UV absorbance detector (λ = 254 nm) and a radioactive detector. […] The blood samples were centrifuged at 4000 rpm for 2 min to separate plasma. From the centrifuged plasma, the resulting plasma was withdrawn and spiked with 1.4 times its volume of acetonitrile before being spun at 6000 rpm for 4 min. The supernatant, collected after the spun at 6000 rpm, was diluted with 3 mL of water, which was then injected into the HPLC system. The HPLC system was constructed with an Agilent 1200 series binary pump (Agilent, Santa Clara, CA, USA), a Rheodyne 7725i (Thermo Scientific, Waltham, MA, USA) manual injection valve, a 5.0 mL loop, and an Oyokoken S-2493Z radiation detector (Oyokoken, Tokyo, Japan) fitted with 50 mm lead shielding, which houses the detector. Chromatographic separation of the radiometabolites from the unchanged radioligand was performed via gradient elution on a semi-preparative reverse-phase ACE 5 µm C18 HL column (250 × 10 mm) using a mobile phase of acetonitrile (A) and ammonium formate 0.1 M (B). A flow rate of 5.0 mL/min was utilized according to the program 0–6.0 min: (A/B) 40:60 → 90:10 v/v; 6.0–10.0 min: (A/B) 90:10 (v/v). The radioactive peak corresponding to the parent radioligand was then integrated from the data output of the HPLC column. The area of this peak was calculated relative to the total area detected for all radioactive compounds. To evaluate the radioactivity recovery from the system, the measurement was taken from a 2 mL aliquot of the eluate taken from the HPLC column and measured against the total injected radioactivity.

T1 sequence (Q5S007 whole entry): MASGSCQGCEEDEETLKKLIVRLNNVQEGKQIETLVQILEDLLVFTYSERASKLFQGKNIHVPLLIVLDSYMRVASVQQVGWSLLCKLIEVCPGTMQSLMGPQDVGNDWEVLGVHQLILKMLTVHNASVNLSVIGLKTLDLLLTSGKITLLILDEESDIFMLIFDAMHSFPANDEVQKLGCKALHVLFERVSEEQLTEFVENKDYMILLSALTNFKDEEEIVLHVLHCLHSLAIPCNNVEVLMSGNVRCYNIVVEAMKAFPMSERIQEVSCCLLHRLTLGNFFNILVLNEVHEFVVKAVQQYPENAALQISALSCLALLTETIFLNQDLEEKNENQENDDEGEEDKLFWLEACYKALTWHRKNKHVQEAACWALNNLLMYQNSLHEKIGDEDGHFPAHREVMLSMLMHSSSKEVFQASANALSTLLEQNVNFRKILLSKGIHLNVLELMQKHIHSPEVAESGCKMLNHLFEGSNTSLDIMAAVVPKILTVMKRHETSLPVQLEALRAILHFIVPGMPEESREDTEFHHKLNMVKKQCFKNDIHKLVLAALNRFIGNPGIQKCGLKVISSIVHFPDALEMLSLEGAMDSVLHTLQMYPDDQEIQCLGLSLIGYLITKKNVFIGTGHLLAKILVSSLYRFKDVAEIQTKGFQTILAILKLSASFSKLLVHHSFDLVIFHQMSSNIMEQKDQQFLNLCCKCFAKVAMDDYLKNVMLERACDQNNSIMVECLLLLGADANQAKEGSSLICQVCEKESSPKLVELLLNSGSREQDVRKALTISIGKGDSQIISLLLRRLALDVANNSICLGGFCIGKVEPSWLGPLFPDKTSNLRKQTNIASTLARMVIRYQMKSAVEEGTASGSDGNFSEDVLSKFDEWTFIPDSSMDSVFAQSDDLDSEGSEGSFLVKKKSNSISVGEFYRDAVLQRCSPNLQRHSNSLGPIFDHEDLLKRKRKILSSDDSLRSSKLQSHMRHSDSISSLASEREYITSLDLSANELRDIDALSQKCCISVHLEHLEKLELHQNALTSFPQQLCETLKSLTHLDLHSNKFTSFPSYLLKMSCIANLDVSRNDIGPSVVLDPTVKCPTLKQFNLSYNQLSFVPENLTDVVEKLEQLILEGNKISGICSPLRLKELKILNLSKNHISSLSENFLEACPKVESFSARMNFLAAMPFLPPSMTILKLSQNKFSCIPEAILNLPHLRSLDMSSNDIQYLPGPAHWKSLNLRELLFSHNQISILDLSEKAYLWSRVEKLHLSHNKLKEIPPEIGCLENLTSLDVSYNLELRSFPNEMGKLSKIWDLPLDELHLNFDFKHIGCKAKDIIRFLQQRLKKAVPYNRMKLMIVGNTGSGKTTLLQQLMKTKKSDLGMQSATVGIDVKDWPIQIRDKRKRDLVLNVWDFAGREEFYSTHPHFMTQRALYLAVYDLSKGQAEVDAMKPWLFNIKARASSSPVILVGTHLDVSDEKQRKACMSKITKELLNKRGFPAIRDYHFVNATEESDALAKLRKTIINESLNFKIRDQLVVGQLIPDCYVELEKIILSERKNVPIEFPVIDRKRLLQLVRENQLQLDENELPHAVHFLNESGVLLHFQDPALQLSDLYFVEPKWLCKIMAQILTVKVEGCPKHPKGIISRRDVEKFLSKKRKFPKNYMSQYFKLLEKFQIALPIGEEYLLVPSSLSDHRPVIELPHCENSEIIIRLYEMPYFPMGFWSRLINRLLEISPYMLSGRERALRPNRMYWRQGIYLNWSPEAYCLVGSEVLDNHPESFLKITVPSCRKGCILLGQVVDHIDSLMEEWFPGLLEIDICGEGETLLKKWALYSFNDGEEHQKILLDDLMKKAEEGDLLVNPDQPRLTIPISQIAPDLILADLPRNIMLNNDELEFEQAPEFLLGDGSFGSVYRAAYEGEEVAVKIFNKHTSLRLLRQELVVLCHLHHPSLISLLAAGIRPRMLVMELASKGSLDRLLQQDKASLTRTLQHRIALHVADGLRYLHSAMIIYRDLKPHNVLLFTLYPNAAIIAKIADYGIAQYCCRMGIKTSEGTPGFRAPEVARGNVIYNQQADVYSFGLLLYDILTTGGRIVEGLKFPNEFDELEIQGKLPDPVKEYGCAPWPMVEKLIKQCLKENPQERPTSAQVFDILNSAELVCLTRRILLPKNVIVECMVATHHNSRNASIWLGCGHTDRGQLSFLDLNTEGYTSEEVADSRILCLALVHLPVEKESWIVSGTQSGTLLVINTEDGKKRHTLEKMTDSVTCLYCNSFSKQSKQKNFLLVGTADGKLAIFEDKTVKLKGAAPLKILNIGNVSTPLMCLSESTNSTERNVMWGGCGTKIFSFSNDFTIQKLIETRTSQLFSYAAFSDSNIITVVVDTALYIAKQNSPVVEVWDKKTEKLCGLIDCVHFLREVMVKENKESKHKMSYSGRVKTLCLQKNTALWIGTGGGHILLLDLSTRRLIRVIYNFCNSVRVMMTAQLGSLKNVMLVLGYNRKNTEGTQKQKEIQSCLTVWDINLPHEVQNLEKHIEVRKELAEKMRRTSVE

**Q.** Which “Stability in PBS buffer” value [1] does the source give for `C[C@@H]1C[C@@H]([18F])CN1c1c(C#N)c2c(N)nccc2n1C` [[^18F]1, 4-Amino-2-((2R,4R)-4-[^18F]fluoro-2-methylpyrrolidin-1-yl)-1-methyl-1H-pyrrolo[3,2-c]pyridine-3-carbonitrile] here?
**A.** demonstrated stability

**Q.** And the “Binding of radioligand in brain slices (ARG)” value (LRRK2)?
**A.** clear binding

**Q.** And the “Parent compound, share of eluted plasma radioactivity” value (shortened to “Parent compound, share”) ([2]; at 5 min)?
**A.** over 90%

**Q.** What about the “Parent compound, share” value ([2]; at 90 min) of the same compound?
**A.** around 10%

**Q.** For `C[C@@H]1C[C@@H]([18F])CN1c1c(C#N)c2c(N)ncnc2n1C` [[^18F]2, 4-Amino-6-((2R,4R)-4-[^18F]fluoro-2-methyl Pyrrolidin-1-yl)-7-methyl-7H-pyrrolo[2,3-d]pyrimidine-5-carbonitrile], which “Stability in PBS buffer” value [1] is on record?
**A.** demonstrated stability

**Q.** What about the “Binding of radioligand in brain slices (ARG)” value (LRRK2) of the same compound?
**A.** displayed binding

**Q.** And the “Parent compound, share” value ([2]; at 5 min)?
**A.** over 90%

**Q.** And the “Parent compound, share” value ([2]; at 90 min)?
**A.** around 10%

From paper PMC12735872, “Development of ^18F/^11C-Labeled Pyrrolo-Pyridine/Pyrimidine LRRK2 Selective PET Radioligands” (Pharmaceuticals, 2025)
